This is an account of results in PubChem BioAssay (NCI).

Values joined by “and” are separate entries in the source; they are usually repeats but may differ in a detail not shown here. Identical values can stand only once.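 Grown in 96-well plates, cells were treated for 48 hours with each compound at five concentrations. Insufficient inhibition: endpoint recorded as highest concentration tested. The concentration for 50% growth inhibition is given as GI50. TGI denotes the concentration required for complete inhibition of growth.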

Test systems include MDA-MB-435; NCI/ADR-RES ovarian; NCI-H460 lung; 786-0 renal; LOX IMVI melanoma; MCF7 breast; DU-145 prostate; PC-3 prostate; CCRF-CEM leukemia; RXF 393 renal.
What all share (test): inhibition of tumour cell growth, NCI panel, 48 h

Consider `C/C1=C/C2=CC(C)C[C@@H]2C(=O)[C@]2(C)C(=O)CC(C)(C)[C@H]2CC1=O` (some centres not stated), for which the TGI in the assay on MDA-MB-435, in the assay with NCI/ADR-RES ovarian, with NCI-H460 lung, in the assay on 786-0 renal, in the assay with LOX IMVI melanoma and in the assay on MCF7 breast was above 50 µM each time. Further, the TGI with DU-145 prostate, in the assay on PC-3 prostate and in the assay with CCRF-CEM leukemia was above 50 µM each time.

Turning to `C=CC(C=O)C1(O)CCOC(=O)/C1=C\N` (configuration not stated), the GI50 with MDA-MB-435, in the assay with NCI/ADR-RES ovarian, in the assay with NCI-H460 lung, in the assay with 786-0 renal, in the assay with LOX IMVI melanoma and with MCF7 breast was above 100 µM each time. Further, the GI50 in the assay with DU-145 prostate, in the assay on PC-3 prostate and in the assay on CCRF-CEM leukemia was above 100 µM throughout. For the same molecule, the TGI in the assay on MDA-MB-435, in the assay on NCI/ADR-RES ovarian, with NCI-H460 lung, in the assay on 786-0 renal, with LOX IMVI melanoma and in the assay on MCF7 breast was above 100 µM in each case. Further, the TGI with DU-145 prostate, in the assay with PC-3 prostate and with CCRF-CEM leukemia was above 100 µM each time.

On to `COc1cnc2c(c1)C(=O)c1c-2n(CCCN2CCC(O)CC2)c(=O)c2cc(F)ccc12`, for which the GI50 in the assay on MDA-MB-435 was 0.382 µM; in the assay on NCI/ADR-RES ovarian it was 0.303 µM; in the assay on NCI-H460 lung it was 0.0444 µM; with 786-0 renal it was 0.211 µM; in the assay with LOX IMVI melanoma, 0.127 µM; with MCF7 breast it was 0.0312 µM. The GI50 with DU-145 prostate was 0.174 µM; in the assay on RXF 393 renal it was 0.217 µM; with CCRF-CEM leukemia, 0.0797 µM. For the same molecule, the TGI with MDA-MB-435 is 5.72 µM; in the assay with NCI/ADR-RES ovarian, 1.98 µM; with NCI-H460 lung, 0.221 µM; in the assay with 786-0 renal, 0.925 µM; with LOX IMVI melanoma it was 0.295 µM; in the assay with MCF7 breast it was 1.17 µM. The TGI with DU-145 prostate was determined as 1.41 µM; in the assay with RXF 393 renal, 0.838 µM; in the assay with CCRF-CEM leukemia it was 1.95 µM.

For the molecule `Cc1cc(=O)[nH]o1`, the TGI with MDA-MB-435, in the assay with NCI/ADR-RES ovarian, with NCI-H460 lung, with 786-0 renal, in the assay with LOX IMVI melanoma and in the assay with MCF7 breast was above 100 µM in each case. In addition, the TGI with RXF 393 renal and in the assay with PC-3 prostate was above 100 µM in each case.

For `CN(C)CCNC(=O)Cn1cc([N+](=O)[O-])c(=O)c2ccccc21`, the TGI in the assay with MDA-MB-435, in the assay on NCI/ADR-RES ovarian, with NCI-H460 lung, in the assay with 786-0 renal, with MCF7 breast and with DU-145 prostate was above 100 µM in each case. Also, the TGI in the assay with PC-3 prostate and in the assay with CCRF-CEM leukemia was above 100 µM throughout.

Take `OCC1OC(OCC(O)C(O)C(O)C(/C=N/Nc2ccccc2)=N/Nc2ccccc2)C(O)C(O)C1O` (configuration not stated): the TGI in the assay on MDA-MB-435, in the assay with NCI/ADR-RES ovarian, in the assay with NCI-H460 lung, in the assay with 786-0 renal, in the assay on LOX IMVI melanoma and with MCF7 breast was above 100 µM in each case. Further, the TGI in the assay on DU-145 prostate, in the assay on PC-3 prostate and in the assay with CCRF-CEM leukemia was above 100 µM in each case.

On to `C=CC(C)(O)/C=C/C=C(\C)C(CC1OC1(C)C)OC(=O)/C(C)=C\C` (configuration not stated), for which the TGI with MDA-MB-435, in the assay on NCI/ADR-RES ovarian, with NCI-H460 lung, with 786-0 renal, in the assay with LOX IMVI melanoma and in the assay with MCF7 breast was above 100 µM throughout. Besides, the TGI in the assay with DU-145 prostate, in the assay on RXF 393 renal and in the assay on PC-3 prostate was above 100 µM in each case.

Take `COc1cccc2c1-c1c(c3ccc([N+](=O)[O-])cc3c(=O)n1CCCCl)C2=O`: the GI50 is above 50 µM in the assay with MDA-MB-435; above 50 µM in the assay on NCI/ADR-RES ovarian; 0.972 µM in the assay on NCI-H460 lung; 6.4 µM in the assay with 786-0 renal; 1.23 µM in the assay with LOX IMVI melanoma; 0.0614 µM with MCF7 breast. Also, the GI50 with PC-3 prostate was 7.37 µM; in the assay on CCRF-CEM leukemia, 1.5 µM. Further, the TGI in the assay with MDA-MB-435 is above 50 µM; in the assay on NCI/ADR-RES ovarian, above 50 µM; in the assay with NCI-H460 lung it was above 50 µM; in the assay with 786-0 renal it was 17.4 µM; in the assay with LOX IMVI melanoma, above 50 µM; with MCF7 breast, 0.327 µM. Moreover, the TGI in the assay with PC-3 prostate and in the assay on CCRF-CEM leukemia was above 50 µM in each case.

Turning to `O=C1C2=Nc3ccccc3C(O)N2c2ccccc21` (configuration not stated), the TGI in the assay on MDA-MB-435 was 6.29 µM; with NCI/ADR-RES ovarian it was above 100 µM; with NCI-H460 lung it was above 100 µM; in the assay on 786-0 renal, above 100 µM; in the assay on LOX IMVI melanoma it was 13.1 µM; in the assay with MCF7 breast, above 100 µM. Moreover, the TGI in the assay on DU-145 prostate, with PC-3 prostate and with CCRF-CEM leukemia was above 100 µM each time.

As to `Cn1c(O)c(C(/C=C/c2ccccc2)=NCCN=C(/C=C/c2ccccc2)c2c(O)n(C)c(=O)n(C)c2=O)c(=O)n(C)c1=O`, the GI50 with MDA-MB-435 was 18 µM; with NCI/ADR-RES ovarian, 15.3 µM; in the assay on NCI-H460 lung, 10.1 µM; in the assay on 786-0 renal it was 21.3 µM; with LOX IMVI melanoma, 17.1 µM; in the assay with MCF7 breast, 15.9 µM. The GI50 in the assay on DU-145 prostate is 13.3 µM; in the assay with RXF 393 renal, 22.5 µM; in the assay on CCRF-CEM leukemia, 12.4 µM. For the same molecule, the TGI in the assay on MDA-MB-435 is above 50 µM; in the assay on NCI/ADR-RES ovarian, above 50 µM; in the assay with NCI-H460 lung, 24.6 µM; in the assay on 786-0 renal it was above 50 µM; in the assay on LOX IMVI melanoma, above 50 µM; with MCF7 breast, above 50 µM. Also, the TGI in the assay with DU-145 prostate, in the assay on RXF 393 renal and in the assay with CCRF-CEM leukemia was above 50 µM each time.

Take `O=S(=O)(O)c1ccc(-c2nnc(-c3ccccn3)nc2-c2ccc(S(=O)(=O)O)o2)o1`: the TGI in the assay on MDA-MB-435, in the assay on NCI/ADR-RES ovarian, in the assay on NCI-H460 lung, in the assay on 786-0 renal, in the assay with LOX IMVI melanoma and with MCF7 breast was above 100 µM throughout. For the same molecule, the TGI in the assay with DU-145 prostate, with RXF 393 renal and in the assay with PC-3 prostate was above 100 µM in each case.

On to `O=C([O][Hg][CH2]C1COC([CH2][Hg][O]C(=O)c2ccccc2)CO1)c1ccccc1` (configuration not stated), for which the GI50 in the assay with NCI/ADR-RES ovarian is 10.9 µM and 1.74 µM; in the assay with NCI-H460 lung, 17.3 µM and 3.49 µM; in the assay with 786-0 renal it was 2.88 µM and 1.47 µM; in the assay with LOX IMVI melanoma, 1.89 µM and 1.66 µM; with MCF7 breast, 3.69 µM and 1.16 µM; in the assay on DU-145 prostate, 18.8 µM. Moreover, the GI50 in the assay on RXF 393 renal is 8.88 µM and 1.45 µM; in the assay with PC-3 prostate, 15.3 µM; with CCRF-CEM leukemia, 0.958 µM and 1.17 µM. Moreover, the TGI is 28.9 µM and 4.76 µM with NCI/ADR-RES ovarian; 33.4 µM and 21.6 µM in the assay with NCI-H460 lung; 8.5 µM and 2.99 µM in the assay with 786-0 renal; 4.85 µM and 3.11 µM in the assay on LOX IMVI melanoma; 19.8 µM and 2.87 µM in the assay with MCF7 breast; 33 µM in the assay on DU-145 prostate. Further, the TGI with RXF 393 renal is 22.8 µM and 2.76 µM; with CCRF-CEM leukemia it was 3.64 µM.

`Cc1cc(C2=NNC(=O)Cc3cc4c(cc32)OCCO4)cc(C)c1N`: the GI50 with MDA-MB-435 was 0.261 µM; with NCI/ADR-RES ovarian it was 0.882 µM; in the assay with NCI-H460 lung, 2.64 µM; in the assay on 786-0 renal, 5.27 µM; in the assay with LOX IMVI melanoma, 3.18 µM; in the assay on MCF7 breast, 1.13 µM. For the same molecule, the GI50 in the assay with DU-145 prostate was 3.84 µM; with PC-3 prostate, 2.73 µM. Moreover, the TGI is 0.978 µM with MDA-MB-435; 25.8 µM with NCI/ADR-RES ovarian; above 100 µM in the assay with NCI-H460 lung; above 100 µM in the assay on 786-0 renal; above 100 µM in the assay with LOX IMVI melanoma; above 100 µM with MCF7 breast. Also, the TGI in the assay on DU-145 prostate and in the assay with PC-3 prostate was above 100 µM each time.

Take `CO/N=C(\C)c1cccc(Nc2cc(-c3ccccc3)nc3c(O)cccc23)c1`: the GI50 is 1.97 µM with MDA-MB-435; 2.02 µM with NCI/ADR-RES ovarian; 0.307 µM in the assay with 786-0 renal; 8.56 µM in the assay with LOX IMVI melanoma; 9.2 µM with DU-145 prostate; 3.69 µM with RXF 393 renal. In addition, the GI50 in the assay on PC-3 prostate is 4.13 µM; in the assay on CCRF-CEM leukemia, 2.57 µM. Moreover, the TGI was 5.56 µM in the assay with MDA-MB-435; 13.5 µM in the assay with NCI/ADR-RES ovarian; 3.38 µM in the assay on 786-0 renal; 24.3 µM with LOX IMVI melanoma; 28 µM with DU-145 prostate; 14.9 µM in the assay on RXF 393 renal. Moreover, the TGI in the assay with PC-3 prostate was determined as 24.3 µM; in the assay with CCRF-CEM leukemia, 8.74 µM.

On to `COc1ccc(-c2nn(-c3cccc(NC(=O)c4ccc5c(c4)OCCO5)c3)cc2-c2ccncc2)cc1Cl`, for which the GI50 was 1.01 µM with NCI/ADR-RES ovarian; 2.67 µM in the assay on NCI-H460 lung; 1.78 µM with 786-0 renal; 3 µM with LOX IMVI melanoma; 1.99 µM in the assay on MCF7 breast; 3.99 µM with DU-145 prostate. The GI50 with RXF 393 renal was 1.23 µM; with PC-3 prostate, 2.12 µM; with CCRF-CEM leukemia, 1.68 µM. Also, the TGI came out at 4.74 µM in the assay with NCI/ADR-RES ovarian; 15.6 µM in the assay on NCI-H460 lung; 5.91 µM with 786-0 renal; 13 µM in the assay with LOX IMVI melanoma; 10.9 µM in the assay with MCF7 breast; 24.9 µM in the assay with DU-145 prostate. Besides, the TGI with RXF 393 renal was 4.52 µM; in the assay with PC-3 prostate, 18.1 µM; in the assay on CCRF-CEM leukemia, 10.3 µM.

Consider `CN(C)c1ccc(/C=C2\N=C(c3ccc([N+](=O)[O-])cc3)OC2=O)cc1`, for which the TGI was above 100 µM in the assay on MDA-MB-435; above 100 µM in the assay with NCI-H460 lung; above 100 µM in the assay on 786-0 renal; 61.2 µM in the assay with LOX IMVI melanoma; above 100 µM in the assay on MCF7 breast; above 100 µM in the assay with DU-145 prostate. Also, the TGI in the assay on RXF 393 renal is above 100 µM; in the assay with PC-3 prostate, above 100 µM; in the assay with CCRF-CEM leukemia it was 97.9 µM.
